Our source for the IC50 values is patent US9422292B2, “Bromodomain inhibitors and uses thereof” (Constellation Pharmaceuticals, Inc., priority 2011, dated 2016).

SMILES strings stand for the structures. Like-named read-outs stand apart in the source and are kept apart here. Bounds are passed on as bounds.

In experiment [1] the test system is MYC mRNA in MV4:11 (AML) cells. The experiment can be described thus: cMyc RNA quantification assay (QuantiGene) in MV4:11 cells. In kind it is cell-based. The note with it: Homo sapiens, 4 h, QuantiGene 2.0. The method, then: B. cMyc RNA Quantification Assay (QuantiGene® Assay):
MV4:11 (AML) cells were seeded in a 96-well plate and incubated in the presence of various concentrations of compounds for 4 h. Relative mRNA levels were quantitated by using QuantiGene 2.0 assay (Affymetrix) according to the manufacturer's recommendation. Signals were detected by using an Envision plate reader (Perkin-Elmer). Biological duplicates were averaged and normalized to vehicle (DMSO) control to calculate percent MYC mRNA levels.

Another experiment deals with T1, BRD4 (BD1) (Homo sapiens, UniProt O60885).
T1 construct: His; made in house
The experiment can be described thus: BRD4 AlphaLisa binding assay. The method, then: A. IC50 Measurements for Inhibitors Using BRD4 AlphaLisa Binding Assay.
Specifically, in a 384 well ProxiPlate BRD4 (BD1) (30 nM final) was combined with peptide (200 nM final) in 40 mM HEPES (pH 7.0), 40 mM NaCl, 1 mM DTT, 0.01% (w/v) BSA, and 0.008% (w/v) Brij-35 either in the presence of DMSO (final 1.2% DMSO) or compound dilution series in DMSO. After 20 minute incubation at room temperature Alpha streptavidin donor beads and AlphaLisa anti-Flag acceptor beads were added to a final concentration of 10 ug/mL each. After three hours equilibration plates were read on an Envision instrument and IC50s calculated using a four parameter non-linear curve fit.

In experiment [2] the test system is IL-6 secretion in THP-1 cells. The experiment can be described thus: Cell-based IL-6 quantification assay (ELISA, Mesoscale) in LPS-treated THP-1 cells. The note with it: Homo sapiens, LPS 4 μg/mL, 16 h, ELISA value/CellTiter-Glo ratio. The method, then: C. Cell-Based IL-6 Quantification Assay (ELISA, Mesoscale Assay):
100,000 THP-1 cells were seeded in RPMI1640-10% FBS in 96-well plates. LPS (E. Coli Invitrogen) in RPMI−10% FBS at a final concentration of 4 μg/mL was added to the wells and the cells are then incubated in the presence of various concentrations of compounds for 16 h. Plates are spun ([…], 5 min), an aliquot of 25 uL supernatant is transferred in to an ELISA plate (Mesoscale technology, MSD) and the detection of IL-6 is performed using manufacturer's instructions. The amount of cells in each well is assessed using CellTiter-Glo® (Promega). The ratio of ELISA value/CellTiter-Glo value is used to calculate the percent of inhibition of IL-6 secretion.

Setting [3] is: BRD4 (BD1) 30 nM, biotinylated H4-tetraacetyl peptide 200 nM, read-out: BRD4 AlphaLisa.

For `Cc1nnc2n1-c1ccc(-c3ccc(N)nc3)cc1N(c1ccc(C(F)(F)F)cc1)CC2` [Compound 19, 4H-[1,2,4]triazolo[4,3-a][1,5]benzodiazepine,5,6-dihydro-1-methyl-8-(6-amino-pyridin-3-yl)-6-(4-trifluoromethyl-phenyl)], the values for the IC50 (in experiment [1]; at BRD4 (BD1) (setting [3]); in experiment [2]) were 100 to 1000 nM, less than 100 nM and less than 100 nM, respectively.

With `Cc1nnc2n1-c1ccc(-c3ncc(C(=O)O)cn3)cc1N(c1ccc(Cl)cc1)CC2` [Compound 24, 4H-[1,2,4]triazolo[4,3-a][1,5]benzodiazepine, 5,6-dihydro-1-methyl-8-(5-(carboxy)pyrimidin-2-yl)-6-(4-chloro-phenyl)], the values for the IC50 (in experiment [1]; on BRD4 (BD1) (setting [3]); in experiment [2]) were 1000 to 10000 nM, less than 100 nM and more than 1000 nM, respectively.

With `Cc1nnc2n1-c1ccc(-c3cnc(N)nc3)cc1N(c1ccc(Cl)cc1)C[C@H]2C` [Compound 39, (R)-4H-[1,2,4]triazolo[4,3-a][1,5]benzodiazepine,5,6-dihydro-1,4-dimethyl-8-(2-aminopyrimidin-5-yl)-6-(4-chloro-phenyl)], the IC50 (in experiment [1]; at BRD4 (BD1) (setting [3]); in experiment [2]) was less than 100 nM throughout.

Regarding `Cc1nnc2n1-c1ccc(-c3ccc(=O)[nH]c3)cc1N(c1ccc(Cl)cc1)C[C@H]2C` [Compound 61, (R)-5-(6-(4-chlorophenyl)-1,4-dimethyl-5,6-dihydro-4H-benzo[b][1,2,4]triazolo[4,3-d][1,4]diazepin-8-yl)pyridin-2(1H)-one], the IC50 (in experiment [1]; on BRD4 (BD1) (setting [3]); in experiment [2]) was less than 100 nM each time.

Regarding `Cc1nnc2n1-c1ccc(-c3ccc(N)nc3)cc1N(c1ccc(C(N)=O)cc1)CC2C` (stereo in doubt) [Compound 69, (R)-4-(8-(6-aminopyridin-3-yl)-1,4-dimethyl-4H-benzo[b][1,2,4]triazolo[4,3-d][1,4]diazepin-6(5H)-yl)benzamide], the figures for the IC50 (in experiment [1]; on BRD4 (BD1) (setting [3]); in experiment [2]) were 1000 to 10000 nM, 100 to 1000 nM and 1000 to 10000 nM, respectively.

In the case of `Cc1ccc(-c2ccc3c(c2)N(c2ccc(Cl)cc2)C[C@@H](C)c2nnc(C)n2-3)cn1` [Compound 29, (R)-4H-[1,2,4]triazolo[4,3-a][1,5]benzodiazepine, 5,6-dihydro-1,4-dimethyl-8-(6-methylpyridin-3-yl)-6-(4-chloro-phenyl)], the IC50 (in experiment [1]; at BRD4 (BD1) (setting [3]); in experiment [2]) was less than 100 nM throughout.

As for `Cc1nnc2n1-c1ccc(-c3cnn(C)c3)cc1N(c1ccc(C#N)cn1)C[C@@H]2C` [Compound 58, (S)-4H-[1,2,4]triazolo[4,3-a][1,5]benzodiazepine, 5,6-dihydro-1,4-dimethyl-8-(1-methyl-1H-pyrazol-4-yl)-6-(5-cyanopyridin-2-yl)], the IC50 (in experiment [1]; at BRD4 (BD1) (setting [3]); in experiment [2]) was 1000 to 10000 nM throughout.

Consider `Cc1nnc2n1-c1ccc(-c3ccc(=O)[nH]c3)cc1N(c1ccc(Cl)cn1)C[C@H]2C` [Compound 82, (R)-5-(6-(5-chloropyridin-2-yl)-1,4-dimethyl-5,6-dihydro-4H-benzo[b][1,2,4]triazolo[4,3-d][1,4]diazepin-8-yl)pyridin-2(1H)-one], for which the IC50 in experiment [1] was 100 to 1000 nM; on BRD4 (BD1) (setting [3]), 100 to 1000 nM; in experiment [2], more than 1000 nM.

Turning to `Cc1nnc2n1-c1ccc(-c3cnn(C)n3)cc1N(c1ccc(Cl)cc1)C[C@H]2C` [Compound 48, 4H-[1,2,4]triazolo[4,3-a][1,5]benzodiazepine, 5,6-dihydro-(4R)-1,4-dimethyl-8-(2-methyl-2H-1,2,3-triazole-4-yl)-6-(4-chloro-phenyl)], the IC50 (in experiment [1]; at BRD4 (BD1) (setting [3]); in experiment [2]) was less than 100 nM each time.

Turning to `Cc1nnc2n1-c1c(F)cccc1N(c1ccc(Cl)cc1)CC2` [Compound 17, 6-(4-chlorophenyl)−10-fluoro-1-methyl-5,6-dihydro-4H-benzo[b][1,2,4]triazolo[4,3-d][1,4]diazepine], the values for the IC50 (in experiment [1]; at BRD4 (BD1) (setting [3]); in experiment [2]) were 1000 to 10000 nM, 1000 to 10000 nM and more than 1000 nM, respectively.

As to `Cc1nnc2n1-c1ccc(-c3cn[nH]c3)cc1N(c1ccc(C#N)cc1)C[C@H]2C` [Compound 80, (R)-4-(1,4-dimethyl-8-(1H-pyrazol-4-yl)-4H-benzo[b][1,2,4]triazolo[4,3-d][1,4]diazepin-6(5H)-yl)benzonitrile], the IC50 (in experiment [1]; on BRD4 (BD1) (setting [3]); in experiment [2]) was less than 100 nM in each case.

For `Cc1nnc2n1-c1ccccc1N(c1ccc(Cl)cc1)CC2C` (stereo not drawn) [Compound 1, 6-(4-chlorophenyl)-1,4-dimethyl-5,6-dihydro-4H-benzo[b][1,2,4]triazolo[4,3-d][1,4]diazepine], the IC50 (in experiment [1]; on BRD4 (BD1); in experiment [2]) was 100 to 1000 nM throughout.

On to `Cc1nnc2n1-c1ccccc1N(c1ccc(Cl)cc1)CC2(C)C` [Compound 3, 6-(4-chlorophenyl)-1,4,4-trimethyl-5,6-dihydro-4H-benzo[b][1,2,4]triazolo[4,3-d][1,4]diazepine], for which the IC50 in experiment [1] was 1000 to 10000 nM; on BRD4 (BD1), 100 to 1000 nM; in experiment [2] it was 100 to 1000 nM.

Turning to `Cc1nnc2n1-c1ccc(C(N)=O)cc1N(c1ccc(Cl)cc1)C[C@H]2C` [Compound 41, 4-R-4H-[1,2,4]Triazolo[4,3-a][1,5]benzodiazepine,5,6-dihydro-1,4-dimethyl-8-carbamoyl-6-(4-chloro-phenyl)], the IC50 is less than 100 nM in experiment [1], less than 100 nM at BRD4 (BD1) (setting [3]) and 100 to 1000 nM in experiment [2].

As to `Cc1nnc2n1-c1ccc(-c3ncccn3)cc1N(c1ccc(Cl)cc1)CC2` [Compound 21, 6-(4-chlorophenyl)-1-methyl-8-(pyrimidin-2-yl)-5,6-dihydro-4H-benzo[b][1,2,4]triazolo[4,3-d][1,4]diazepine], the IC50 in experiment [1] was 1000 to 10000 nM; at BRD4 (BD1) (setting [3]), 100 to 1000 nM; in experiment [2], 100 to 1000 nM.

Consider `Cc1nnc2n1-c1ccc(-c3cnc(N)nc3)cc1N(c1ccc(Cl)cc1)CC2C` (stereo not drawn) [Compound 25], for which the IC50 was less than 100 nM in experiment [1], less than 100 nM at BRD4 (BD1) (setting [3]) and 100 to 1000 nM in experiment [2].

In the case of `Cc1nnc2n1-c1ccc(-c3cnn(C)c3)cc1N(c1ccc(C#N)cc1)C[C@H]2C` [Compound 44, (R)-4H-[1,2,4]triazolo[4,3-a][1,5]benzodiazepine, 5,6-dihydro-1,4-dimethyl-8-(1-methyl-1H-pyrazol-4-yl)-6-(4-cyano-phenyl)], the IC50 (in experiment [1]; at BRD4 (BD1) (setting [3]); in experiment [2]) was less than 100 nM each time.

Consider `Cc1nnc2n1-c1ccc(-c3cnn(CC(N)=O)c3)cc1N(c1ccc(Cl)cc1)C[C@H]2C` [Compound 46, 4H-[1,2,4]triazolo[4,3-a][1,5]benzodiazepine,5,6-dihydro-(4R)-1,4-dimethyl-8-(1-(2-amino-2-oxoethyl)-1H-pyrazol-4-yl)-6-(4-chloro-phenyl)], for which the IC50 in experiment [1] was 100 to 1000 nM; on BRD4 (BD1) (setting [3]), less than 100 nM; in experiment [2], 100 to 1000 nM.

For `Cc1nnc2n1-c1ccc(-c3cnn(C)c3)cc1N(c1ccc(Cl)cc1)C[C@@H]2C` [Compound 42, (S)-4H-[1,2,4]triazolo[4,3-a][1,5]benzodiazepine, 5,6-dihydro-1,4-dimethyl-8-(1-methyl-1H-pyrazol-4-yl)-6-(4-chloro-phenyl)], the results for the IC50 (in experiment [1]; at BRD4 (BD1) (setting [3]); in experiment [2]) were 1000 to 10000 nM, 100 to 1000 nM and more than 1000 nM, respectively.

On to `Cc1ncn(-c2ccc3c(c2)N(c2ccc(Cl)cc2)C[C@@H](C)c2nnc(C)n2-3)n1` [Compound 66, (R)-6-(4-chlorophenyl)-1,4-dimethyl-8-(3-methyl-1H-1,2,4-triazol-1-yl)-5,6-dihydro-4H-benzo[b][1,2,4]triazolo[4,3-d][1,4]diazepine], for which the IC50 (in experiment [1]; on BRD4 (BD1) (setting [3]); in experiment [2]) was less than 100 nM in each case.

Take `Cc1nnc2n1-c1ccc(-c3ccc(N)nc3)cc1N(c1ccc(Cl)cc1)C[C@@H]2C` [Compound 27, (S)-4H-[1,2,4]triazolo[4,3-a][1,5]benzodiazepine, 5,6-dihydro-1,4-dimethyl-8-(6-aminopyridin-3-yl)-6-(4-chloro-phenyl)]: the results for the IC50 (in experiment [1]; on BRD4 (BD1) (setting [3]); in experiment [2]) were 1000 to 10000 nM, 100 to 1000 nM and 100 to 1000 nM, respectively.

Consider `Cc1nnc2n1-c1ccc(-c3cnc(N)cn3)cc1N(c1ccc(C#N)cc1)C[C@@H]2C` [Compound 63], for which the IC50 was 1000 to 10000 nM in experiment [1], 100 to 1000 nM on BRD4 (BD1) (setting [3]) and more than 1000 nM in experiment [2].
